Patent US7718767B2, “3-ether and 3-thioether substituted cyclosporin derivatives for the treatment and prevention of hepatitis C infection” (Scynexis, Inc., priority 2006, dated 2010)

Legend:
HCV RNA replicon ET = test: HCV RNA replicon luciferase reporter assay, antiviral activity; format: cell-based; conditions: ET replicon cells, 72 h, LUC activity; for EC50: concentration reducing viral replication by 50%; for EC90: concentration reducing viral replication by 90%
HIV-1IIIB = test: HIV MTS cytoprotection assay in CEM-SS cells; format: cell-based, human immunodeficiency virus-1; conditions: 6 days post-infection, concentration inhibiting virus replication by 50%
CEM-SS cells = test: Compound cytotoxicity in the HIV MTS assay (cells plus drug only); format: cell-based, human; conditions: 50% inhibition of cell growth
Procedure: In this MTS cytoprotection assay, each experiment included cell control wells (cells only), virus control wells (cells plus virus), drug toxicity wells (cells plus drug only), drug colorimetric control wells (drug only) as well as experimental wells (drug plus cells plus virus). […] HIV-1RF was added to each well in a volume of 50 μL, the amount of virus determined to give approximately 90% cell killing at 6 days post-infection. At assay termination, assay plates were stained with the soluble tetrazolium-based dye MTS (CellTiter 96 Reagent, Promega) to determine cell viability and quantify compound toxicity. MTS is metabolized by the mitochondria enzymes of metabolically active cells to yield a soluble formazan product, providing a quantitative analysis of cell viability and compound cytotoxicity. The assay was validated in parallel experiments using Zidovudine (3′-azido-3′-deoxythymidine or AZT) as a positive control.

[1] = tested on: human hepatoma cell line ET; test: Cytotoxicity in the replicon cell line, colorimetric assay of cell numbers; conditions: ET cells, 72 h; for IC50: read-out: Cytotoxicity IC50, concentration inhibiting cell viability by 50%; for IC90: read-out: Cytotoxicity IC90, concentration inhibiting cell viability by 90%
Excerpt: Compounds were examined in the human hepatoma cell line ET (lub ubi heo/ET), a HCV RNA replicon containing a stable luciferase (LUC) reporter. The HCV RNA replicon ET contains the 5′ end of HCV (with the HCV Internal Ribosome Entry Site (IRES) and the first few amino acids of the HCV core protein) which drives the production of a firefly luciferase (LUC), ubiquitin, and neomycin phosphotransferase (NeoR) fusion protein. Ubiquitin cleavage releases the LUC and NeoR proteins. The EMCV IRES element controls the translation of the HCV […] NS3-NS5. The NS3 protein cleaves the HCV polyprotein to release the mature NS3, NS4A, NS4B, NS5A and NS5B proteins that are required for HCV replication. At the 3′ end of the replicon is the authentic 3′ NTR of HCV. The activity of the LUC reporter is directly proportional to HCV replication levels and positive-control antiviral compounds produce a reproducible antiviral response using the LUC endpoint.
The compounds were dissolved in DMSO at five half-log concentrations each, ranging from either 0.02 to 2.0 μM, 0.03 to 3 μM, […], or 1 to 100 μM. Subconfluent cultures of the ET line were plated out into 96 well plates dedicated for the analysis of cell numbers (cytotoxicity) or antiviral activity and the next day the compounds were added to the appropriate wells. The cells were processed 72 h later when the cells were still subconfluent. […] The activity of the LUC reporter is directly proportional to HCV RNA levels in the human cell line. The HCV-replicon assay was validated in parallel experiments using interferon-alpha-2b as a positive control.

| Molecule | EC50 (HCV RNA replicon ET) [nM] | EC90 (HCV RNA replicon ET) [nM] | EC50 (HIV-1IIIB) [nM] | IC50 (CEM-SS cells) [nM] | IC50 [1] [nM] | IC90 [1] [nM] |
| --- | --- | --- | --- | --- | --- | --- |
| 3-(ethoxy)-4-(gamma-hydroxymethylleucine)cyclosporin [W] | 130 | 510 | 680 |  |  |  |
| 3-(isopropoxy)-4-(gamma-hydroxymethylleucine)cyclosporin [V] | 360 | 1200 | 440 |  |  |  |
| C/C=C/C[C@@H](C)[C@@H](O)[C@H]1C(=O)N[C@@H](CC)C(=O)N(C)[C@H](OCCN2CCOCC2)C(=O)N(C)[C@@H](CC(C)C)C(=O)N[C@@H](C(C)C)C(=O)N(C)[C@@H](CC(C)C)C(=O)N[C@@H](C)C(=O)N[C@H](C)C(=O)N(C)[C@@H](CC(C)C)C(=O)N(C)[C@@H](CC(C)C)C(=O)N(C)[C@@H](C(C)C)C(=O)N1C [Compound L, 3-[2-(N-morpholine)ethoxy)cyclosporin] | 280 | 1250 | 1930 | 19500 | 11500 | > 20000 |
| C/C=C/C[C@@H](C)[C@@H](O)[C@H]1C(=O)N[C@@H](CC)C(=O)N(C)[C@H](SCCOC)C(=O)N(C)[C@@H](CC(C)(C)O)C(=O)N[C@@H](C(C)C)C(=O)N(C)[C@@H](CC(C)C)C(=O)N[C@@H](C)C(=O)N[C@H](C)C(=O)N(C)[C@@H](CC(C)C)C(=O)N(C)[C@@H](CC(C)C)C(=O)N(C)[C@@H](C(C)C)C(=O)N1C [Compound N, 3-(2-methoxyethylthio)-4-(gamma-hydroxymethylleucine)cyclosporin] | < 200 | < 200 | 350 |  | > 20000 | > 20000 |
| C/C=C/C[C@@H](C)[C@@H](O)[C@H]1C(=O)N[C@@H](CC)C(=O)N(C)[C@H](SCCN(C)C)C(=O)N(C)[C@@H](CC(C)(C)O)C(=O)N[C@@H](C(C)C)C(=O)N(C)[C@@H](CC(C)C)C(=O)N[C@@H](C)C(=O)N[C@H](C)C(=O)N(C)[C@@H](CC(C)C)C(=O)N(C)[C@@H](CC(C)C)C(=O)N(C)[C@@H](C(C)C)C(=O)N1C [Compound O, 3-[(R)-2-(N,N-dimethylamino)ethylthio-Sar]-4-(gamma-hydroxymethylleucine)cyclosporin] | 122 | 300 | 60 | 20000 | 13400 | > 20000 |
| C/C=C/C[C@@H](C)[C@@H](O)[C@H]1C(=O)N[C@@H](CC)C(=O)N(C)C(OC)C(=O)N(C)[C@@H](CC(C)(C)O)C(=O)N[C@@H](C(C)C)C(=O)N(C)[C@@H](CC(C)C)C(=O)N[C@@H](C)C(=O)N[C@H](C)C(=O)N(C)[C@@H](CC(C)C)C(=O)N(C)[C@@H](CC(C)C)C(=O)N(C)[C@@H](C(C)C)C(=O)N1C (stereo partly shown) [Compound T, 3-(methoxy)-4-(gamma-hydroxymethylleucine)cyclosporin] |  |  |  | 18000 | > 2000 | > 2000 |
| C/C=C/C[C@@H](C)[C@@H](O)[C@H]1C(=O)N[C@@H](CC)C(=O)N(C)[C@H](OC(C)C)C(=O)N(C)[C@@H](CC(C)C)C(=O)N[C@@H](C(C)C)C(=O)N(C)[C@@H](CC(C)C)C(=O)N[C@@H](C)C(=O)N[C@H](C)C(=O)N(C)[C@@H](CC(C)C)C(=O)N(C)[C@@H](CC(C)C)C(=O)N(C)[C@@H](C(C)C)C(=O)N1C [D, 3-(isopropoxy)cyclosporin] | 290 | 1320 | 1360 | > 20000 | 17200 | > 20000 |
| C/C=C/C[C@@H](C)[C@@H](O)[C@H]1C(=O)N[C@@H](CC)C(=O)N(C)C(OCCCO)C(=O)N(C)[C@@H](CC(C)C)C(=O)N[C@@H](C(C)C)C(=O)N(C)[C@@H](CC(C)C)C(=O)N[C@@H](C)C(=O)N[C@H](C)C(=O)N(C)[C@@H](CC(C)C)C(=O)N(C)[C@@H](CC(C)C)C(=O)N(C)[C@@H](C(C)C)C(=O)N1C (stereo partly shown) [H, 3-(3-hydroxypropoxy)cyclosporin] | < 200 | 370 | 1380 | 13300 | > 20000 | > 20000 |
| C/C=C/C[C@@H](C)[C@@H](O)[C@H]1C(=O)N[C@@H](CC)C(=O)N(C)C(SCC)C(=O)N(C)[C@@H](CC(C)C)C(=O)N[C@@H](C(C)C)C(=O)N(C)[C@@H](CC(C)C)C(=O)N[C@@H](C)C(=O)N[C@H](C)C(=O)N(C)[C@@H](CC(C)C)C(=O)N(C)[C@@H](CC(C)C)C(=O)N(C)[C@@H](C(C)C)C(=O)N1C (stereo partly shown) [P, 3-ethylthiocyclosporin] | 230 | 580 | 160 | 6150 | 6150 | > 20000 |
| C=CCS[C@@H]1C(=O)N(C)[C@@H](CC(C)C)C(=O)N[C@@H](C(C)C)C(=O)N(C)[C@@H](CC(C)C)C(=O)N[C@@H](C)C(=O)N[C@H](C)C(=O)N(C)[C@@H](CC(C)C)C(=O)N(C)[C@@H](CC(C)C)C(=O)N(C)[C@@H](C(C)C)C(=O)N(C)[C@@H]([C@H](O)[C@H](C)C/C=C/C)C(=O)N[C@@H](CC)C(=O)N1C [Q, 3-propenylthiocyclosporin] | 210 | 620 | 230 | 18900 | 18900 | > 20000 |
| C/C=C/C[C@@H](C)[C@@H](O)[C@H]1C(=O)N[C@@H](CC)C(=O)N(C)[C@H](SCCOC)C(=O)N(C)[C@@H](CC(C)C)C(=O)N[C@@H](C(C)C)C(=O)N(C)[C@@H](CC(C)C)C(=O)N[C@@H](C)C(=O)N[C@H](C)C(=O)N(C)[C@@H](CC(C)C)C(=O)N(C)[C@@H](CC(C)C)C(=O)N(C)[C@@H](C(C)C)C(=O)N1C [R, 3-[(2-methoxy)ethylthio]cyclosporin] | 310 | 590 | 500 | 17300 | 11100 | > 20000 |
| C/C=C/C[C@@H](C)[C@@H](O)[C@H]1C(=O)N[C@@H](CC)C(=O)N(C)C(SC)C(=O)N(C)[C@@H](CC(C)(C)O)C(=O)N[C@@H](C(C)C)C(=O)N(C)[C@@H](CC(C)C)C(=O)N[C@@H](C)C(=O)N[C@H](C)C(=O)N(C)[C@@H](CC(C)C)C(=O)N(C)[C@@H](CC(C)C)C(=O)N(C)[C@@H](C(C)C)C(=O)N1C (stereo partly shown) [S, 3-(methylthio)-4-(gamma-hydroxymethylleucine)cyclosporin] |  | 160 | 90 | 14000 | > 2000 | > 2000 |
| C=CCO[C@@H]1C(=O)N(C)[C@@H](CC(C)(C)O)C(=O)N[C@@H](C(C)C)C(=O)N(C)[C@@H](CC(C)C)C(=O)N[C@@H](C)C(=O)N[C@H](C)C(=O)N(C)[C@@H](CC(C)C)C(=O)N(C)[C@@H](CC(C)C)C(=O)N(C)[C@@H](C(C)C)C(=O)N(C)[C@@H]([C@H](O)[C@H](C)C/C=C/C)C(=O)N[C@@H](CC)C(=O)N1C [U, 3-(prop-2-ene-1-oxy)-4-(gamma-hydroxymethylleucine)cyclosporin] | 90 | 450 | 110 | 13400 | > 2000 | > 2000 |
| C/C=C/C[C@@H](C)[C@@H](O)[C@H]1C(=O)N[C@@H](CC)C(=O)N(C)C(OCCOC)C(=O)N(C)[C@@H](CC(C)(C)O)C(=O)N[C@@H](C(C)C)C(=O)N(C)[C@@H](CC(C)C)C(=O)N[C@@H](C)C(=O)N[C@H](C)C(=O)N(C)[C@@H](CC(C)C)C(=O)N(C)[C@@H](CC(C)C)C(=O)N(C)[C@@H](C(C)C)C(=O)N1C (stereo partly shown) [X, 3-[2-(methoxy)ethoxy]-4-(gamma-hydroxymethylleucine)cyclosporin] | 480 | 1500 | 1000 | > 20000 | > 2000 | > 2000 |
| C/C=C/C[C@@H](C)[C@@H](O)[C@H]1C(=O)N[C@@H](CC)C(=O)N(C)[C@H](OCCCOC)C(=O)N(C)[C@@H](CC(C)(C)O)C(=O)N[C@@H](C(C)C)C(=O)N(C)[C@@H](CC(C)C)C(=O)N[C@@H](C)C(=O)N[C@H](C)C(=O)N(C)[C@@H](CC(C)C)C(=O)N(C)[C@@H](CC(C)C)C(=O)N(C)[C@@H](C(C)C)C(=O)N1C [Y, 3-[3-(methoxy)propoxy]-4-(gamma-hydroxymethylleucine)cyclosporin] | 300 | 950 | 520 | > 20000 | > 2000 | > 2000 |
